Assay results from ChEMBL document CHEMBL5356945, “Discovery of PFI-6, a small-molecule chemical probe for the YEATS domain of MLLT1 and MLLT3” (Bioorg Med Chem Lett, 2024).
In brackets after ≈: the same amount, converted by molar mass.

Tests used:
[1] = target: T1, YEATS domain-containing protein 4 (Homo sapiens, UniProt O95619); assay: Inhibition of YEATS4 YD domain (unknown origin) assessed as disruption of histone peptide binding using histone peptide as substrate by HTRF assay
Protein AF-9 [2] = target: T2, Protein AF-9 (Homo sapiens, UniProt P42568); assay: Inhibition of MLLT3 YD domain (unknown origin) assessed as disruption of histone peptide binding using histone peptide as substrate by HTRF assay
T2 sequence (P42568 whole entry): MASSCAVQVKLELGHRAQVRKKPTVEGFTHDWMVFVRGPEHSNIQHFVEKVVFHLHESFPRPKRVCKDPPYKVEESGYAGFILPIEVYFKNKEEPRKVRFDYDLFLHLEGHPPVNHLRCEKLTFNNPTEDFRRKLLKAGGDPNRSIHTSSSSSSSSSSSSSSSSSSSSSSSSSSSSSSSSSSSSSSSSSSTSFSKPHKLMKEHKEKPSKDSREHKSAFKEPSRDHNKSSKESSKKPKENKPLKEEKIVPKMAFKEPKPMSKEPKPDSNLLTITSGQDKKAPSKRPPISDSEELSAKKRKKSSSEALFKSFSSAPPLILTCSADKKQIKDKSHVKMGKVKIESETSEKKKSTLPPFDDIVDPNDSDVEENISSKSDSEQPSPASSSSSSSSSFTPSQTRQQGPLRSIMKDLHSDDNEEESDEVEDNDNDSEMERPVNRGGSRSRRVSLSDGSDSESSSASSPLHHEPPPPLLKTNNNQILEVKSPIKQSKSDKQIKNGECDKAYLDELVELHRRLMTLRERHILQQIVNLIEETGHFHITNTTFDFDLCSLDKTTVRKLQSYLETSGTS

[3] = target: T3, YEATS domain-containing protein 2 (Homo sapiens, UniProt Q9ULM3); assay: Inhibition of YEATS2 YD domain (unknown origin) assessed as disruption of histone peptide binding using histone peptide as substrate by HTRF assay
T3 sequence (Q9ULM3 whole entry): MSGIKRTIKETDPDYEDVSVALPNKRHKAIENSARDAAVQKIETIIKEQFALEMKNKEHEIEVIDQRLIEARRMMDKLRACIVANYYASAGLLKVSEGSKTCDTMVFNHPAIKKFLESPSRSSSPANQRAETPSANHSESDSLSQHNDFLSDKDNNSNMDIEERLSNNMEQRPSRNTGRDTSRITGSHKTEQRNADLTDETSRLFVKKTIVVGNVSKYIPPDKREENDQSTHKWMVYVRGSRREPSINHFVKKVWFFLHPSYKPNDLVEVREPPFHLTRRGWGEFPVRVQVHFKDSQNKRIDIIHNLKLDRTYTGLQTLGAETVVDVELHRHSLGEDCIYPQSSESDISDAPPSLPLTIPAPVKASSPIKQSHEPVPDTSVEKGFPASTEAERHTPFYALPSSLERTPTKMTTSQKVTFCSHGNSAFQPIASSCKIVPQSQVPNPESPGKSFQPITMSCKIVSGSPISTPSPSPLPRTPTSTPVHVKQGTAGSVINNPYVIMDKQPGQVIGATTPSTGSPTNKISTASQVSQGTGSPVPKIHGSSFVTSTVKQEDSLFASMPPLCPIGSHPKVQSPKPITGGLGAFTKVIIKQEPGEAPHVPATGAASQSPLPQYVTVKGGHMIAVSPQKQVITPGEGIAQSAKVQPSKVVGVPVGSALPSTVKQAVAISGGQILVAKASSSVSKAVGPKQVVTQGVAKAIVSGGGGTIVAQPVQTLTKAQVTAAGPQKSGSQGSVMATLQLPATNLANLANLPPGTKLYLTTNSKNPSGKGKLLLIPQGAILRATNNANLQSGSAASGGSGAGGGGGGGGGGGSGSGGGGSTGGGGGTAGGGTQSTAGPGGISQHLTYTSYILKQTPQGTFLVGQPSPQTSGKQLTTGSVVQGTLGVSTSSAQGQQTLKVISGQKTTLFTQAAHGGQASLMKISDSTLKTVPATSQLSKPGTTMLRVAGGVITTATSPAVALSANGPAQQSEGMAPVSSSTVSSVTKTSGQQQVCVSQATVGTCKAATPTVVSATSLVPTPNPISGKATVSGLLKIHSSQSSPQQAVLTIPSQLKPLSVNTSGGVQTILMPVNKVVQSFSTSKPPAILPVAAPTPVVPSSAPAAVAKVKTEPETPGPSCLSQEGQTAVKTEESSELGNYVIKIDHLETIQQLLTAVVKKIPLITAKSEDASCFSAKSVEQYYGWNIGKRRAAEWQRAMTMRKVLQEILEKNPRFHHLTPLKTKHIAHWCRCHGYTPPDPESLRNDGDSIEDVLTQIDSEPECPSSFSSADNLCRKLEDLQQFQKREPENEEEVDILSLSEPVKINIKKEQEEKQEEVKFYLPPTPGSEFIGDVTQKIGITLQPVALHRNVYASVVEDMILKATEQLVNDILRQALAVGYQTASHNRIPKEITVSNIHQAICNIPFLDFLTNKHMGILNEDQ

Protein ENL [4] = target: T4, Protein ENL (Homo sapiens, UniProt Q03111); assay: Inhibition of MLLT1 YD domain (unknown origin) assessed as disruption of histone peptide binding using histone peptide as substrate by HTRF assay
T4 sequence (Q03111 whole entry): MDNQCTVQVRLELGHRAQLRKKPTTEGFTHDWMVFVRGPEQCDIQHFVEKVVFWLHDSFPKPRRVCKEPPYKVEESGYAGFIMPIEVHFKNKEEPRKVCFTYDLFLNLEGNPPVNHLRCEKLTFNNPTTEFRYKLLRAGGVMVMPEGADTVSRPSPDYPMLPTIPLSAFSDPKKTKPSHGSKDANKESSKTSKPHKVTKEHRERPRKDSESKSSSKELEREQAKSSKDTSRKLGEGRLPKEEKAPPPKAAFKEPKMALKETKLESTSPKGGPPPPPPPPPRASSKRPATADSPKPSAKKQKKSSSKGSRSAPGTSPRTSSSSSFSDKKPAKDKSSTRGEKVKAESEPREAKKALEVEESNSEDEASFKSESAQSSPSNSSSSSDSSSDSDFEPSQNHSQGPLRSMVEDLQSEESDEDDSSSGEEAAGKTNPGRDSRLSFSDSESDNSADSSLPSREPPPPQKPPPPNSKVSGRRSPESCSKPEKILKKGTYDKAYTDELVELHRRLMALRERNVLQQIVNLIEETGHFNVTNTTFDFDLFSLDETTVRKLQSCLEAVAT

[5] = target: T5, Protein ENL (Homo sapiens) (UniProt Q03111); assay: Binding affinity to MLLT1 YD domain (unknown origin) assessed as change in melting temperature by thermal shift assay
T5 sequence (whole entry): T4 sequence (Q03111 whole entry)

[6] = target: T6, YEATS domain-containing protein 2 (Homo sapiens) (UniProt Q9ULM3); assay: Binding affinity to YEATS2 YD domain (unknown origin) assessed as change in melting temperature by thermal shift assay
T6 sequence (whole entry): T3 sequence (Q9ULM3 whole entry)

[7] = target: T1, YEATS domain-containing protein 4; assay: Binding affinity to YEATS4 YD domain (unknown origin) assessed as change in melting temperature by thermal shift assay
[8] = Metabolic stability in human hepatocytes assessed as apparent intrinsic clearance measured per million cells; format: ADME, cell-based, Hepatocyte
[9] = Cytotoxicity against human THLE cells assessed as decrease in cellular ATP by CellTiter-Glo assay; format: toxicity, cell-based
[10] = Lipophilicity, logD of the compound by shake flask method; format: physicochemical; conditions: octanol/water
[11] = Kinetic solubility of compound at pH 7.4; format: physicochemical; conditions: buffer, read-out: Kinetic_solubility
[12] = target: T7, Protein AF-9 (Homo sapiens) (UniProt P42568)
T7 sequence (whole entry): T2 sequence (P42568 whole entry)
Description: Binding affinity to MLLT3 YD domain (unknown origin) assessed as change in melting temperature by thermal shift assay

[13] = target: Voltage-gated inwardly rectifying potassium channel KCNH2 (Homo sapiens, UniProt Q12809); assay: Inhibition of human ERG assessed as inhibition constant by patch-clamp assay; format: toxicity
[14] = Passive apparent permeability in dog MDCK cells; format: ADME, cell-based, Canis lupus familiaris
Protein AF-9 [15] = target: T2, Protein AF-9; assay: Binding affinity to MLLT3 in human HEK293 cells by NanoBRET assay; format: cell-based
Protein ENL [16] = target: T4, Protein ENL; assay: Inhibition of His-tagged MLLT1 YD domain (unknown origin) assessed as disruption of protein binding to histone peptide using biotinylated histone peptide as substrate by AlphaScreen assay
[17] = target: T5, Protein ENL (Homo sapiens); assay: Inhibition of His-tagged MLLT1 YD domain (unknown origin) assessed as disruption of protein binding to histone peptide using biotinylated histone peptide as substrate at 100 uM by AlphaScreen assay

T1 sequence (O95619 whole entry, the tested form may be a part): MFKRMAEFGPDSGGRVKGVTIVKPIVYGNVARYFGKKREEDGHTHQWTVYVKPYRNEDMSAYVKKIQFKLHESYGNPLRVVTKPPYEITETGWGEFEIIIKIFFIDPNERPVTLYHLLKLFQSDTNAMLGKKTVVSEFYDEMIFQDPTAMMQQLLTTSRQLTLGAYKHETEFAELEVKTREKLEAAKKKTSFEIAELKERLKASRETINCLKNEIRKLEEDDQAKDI
Voltage-gated inwardly rectifying potassium channel KCNH2, sequence (Q12809 whole entry): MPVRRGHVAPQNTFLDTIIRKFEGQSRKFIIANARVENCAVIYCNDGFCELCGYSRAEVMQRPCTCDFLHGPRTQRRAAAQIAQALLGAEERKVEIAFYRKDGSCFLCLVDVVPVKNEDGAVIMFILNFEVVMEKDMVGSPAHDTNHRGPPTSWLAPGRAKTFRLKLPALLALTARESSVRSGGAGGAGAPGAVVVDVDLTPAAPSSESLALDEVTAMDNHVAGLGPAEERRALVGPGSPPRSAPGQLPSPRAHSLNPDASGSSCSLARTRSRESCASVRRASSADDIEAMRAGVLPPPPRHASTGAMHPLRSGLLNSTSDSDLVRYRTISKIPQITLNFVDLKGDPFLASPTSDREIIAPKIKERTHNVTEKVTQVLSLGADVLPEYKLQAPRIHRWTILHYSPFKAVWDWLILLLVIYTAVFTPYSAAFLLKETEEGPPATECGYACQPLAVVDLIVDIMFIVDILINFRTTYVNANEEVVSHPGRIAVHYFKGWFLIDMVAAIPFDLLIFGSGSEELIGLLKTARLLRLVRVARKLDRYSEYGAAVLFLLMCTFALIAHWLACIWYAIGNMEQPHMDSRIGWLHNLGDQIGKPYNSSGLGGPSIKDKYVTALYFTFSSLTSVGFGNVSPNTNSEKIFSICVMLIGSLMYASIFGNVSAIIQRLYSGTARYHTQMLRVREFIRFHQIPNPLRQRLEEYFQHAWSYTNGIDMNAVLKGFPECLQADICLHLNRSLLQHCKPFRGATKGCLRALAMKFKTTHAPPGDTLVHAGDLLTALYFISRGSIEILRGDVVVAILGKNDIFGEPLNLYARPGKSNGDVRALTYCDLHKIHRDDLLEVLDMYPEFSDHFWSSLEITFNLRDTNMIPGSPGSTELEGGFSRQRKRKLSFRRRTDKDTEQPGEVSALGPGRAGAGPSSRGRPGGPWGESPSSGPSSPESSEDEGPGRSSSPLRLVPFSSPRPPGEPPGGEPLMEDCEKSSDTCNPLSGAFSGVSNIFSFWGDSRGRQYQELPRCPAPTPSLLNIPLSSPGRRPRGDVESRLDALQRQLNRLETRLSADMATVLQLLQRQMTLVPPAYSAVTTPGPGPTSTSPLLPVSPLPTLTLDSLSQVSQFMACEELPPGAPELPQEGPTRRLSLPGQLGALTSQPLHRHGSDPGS

Compound	IC50 [1] [µM]	IC50 (Protein AF-9 [2]) [µM]	IC50 [3] [µM]	IC50 (Protein ENL [4]) [µM]	IC50 (Protein ENL [16]) [µM]	also measured
CN(C)C(=O)c1ccc(-c2cc(C(=O)N[C@@H]3CCc4ccccc43)no2)cc1O	> 30	–	> 30	–	–	ΔTm [5]: 3.61 °C; ΔTm [6]: 0 °C; ΔTm [7]: -0.02 °C; CLH(app) [8]: 43 µL/min; IC50 [9]: > 100 µM; logD [10]: 3.3; solubility kinetic [11]: 3000 µM (≈ 1170 µg/mL); ΔTm [12]: 5.13 °C; Ki [13]: > 100 µM; Papp [14]: 27 ×10⁻⁶ cm/s
CN(C)C(=O)c1ccc(-c2cc(C(=O)N(C)C3CCCC3)no2)cc1O	> 30	> 30	> 30	> 30	–	IC50 (Protein AF-9 [15]): > 30 µM
O=C(NCC1CC1)c1cc(-c2cccc(O)c2)on1	–	–	–	–	21.9	–
O=C(NC1CC1)c1cc(-c2cccc(O)c2)on1	–	–	–	–	28.9	–
CC(C)NC(=O)c1cc(-c2cccc(O)c2)on1	–	–	–	–	9.13	–
O=C(NC1CCC1)c1cc(-c2cccc(O)c2)on1	–	–	–	–	1.14	–
CN(C(=O)c1cc(-c2cccc(O)c2)on1)C1CCCC1	–	–	–	–	> 30	–
O=C(NC1CCCC1)c1cc(-c2cc(O)c3cccnc3c2)on1	> 30	0.2	> 30	0.26	–	–
C[C@H]1CCCN1Cc1nc2cc(NC(=O)c3ccc4c(cnn4C)c3)ccc2[nH]1	–	–	–	–	–	IC50 (Protein AF-9 [15]): 0.6 µM
C/C=C/C(=O)NC1CCCC1	–	–	–	–	–	inhibition [17]: 55%

Continued, in another order:

IC50 [1] [µM]	IC50 (Protein AF-9 [2]) [µM]	IC50 [3] [µM]	IC50 (Protein ENL [4]) [µM]	IC50 (Protein ENL [16]) [µM]	Compound	also measured
> 30	> 30	> 30	> 30	–	O=C(NC1CCCC1)c1cc(-c2cccc(O)c2Cl)on1	–
> 30	3.4	> 30	2.5	–	O=C(NC1CCCC1)c1cc(-c2cccc(O)c2)n[nH]1	–
–	–	–	–	3	O=C(NC1CCCC1)c1ccc2snnc2c1	–
> 5.8	0.5	> 30	0.75	–	O=C(NC1CCCC1)c1cc(-c2ccc(Cl)c(O)c2)on1	–
> 30	0.12	> 30	0.16	–	CN(C)C(=O)c1ccc(-c2cc(C(=O)NC3CCCC3)no2)cc1O	–
> 30	0.63	> 30	0.93	1.1	O=C(NC1CCCC1)c1cc(-c2cccc(O)c2)on1	–
> 30	2.4	> 30	3.4	–	O=C(NC1CCCC1)c1cnn(-c2cccc(O)c2)c1	–
–	–	–	–	6.9	O=C(NC1CCCC1)c1cc(-c2ccc(O)cc2)on1	–
–	–	–	–	5.64	O=C(NC1CCCC1)c1cc2cc(F)ccc2[nH]1	–
> 30	0.5	> 26	0.97	–	O=C(NC1CCCC1)c1cn(-c2cccc(O)c2)cn1	–
